In patent publication US20250057928A1, “VACCINE COMPOSITION FOR INDUCING ANTI-IL-23 ANTIBODY” (OSAKA UNIVERSITY, priority 2021, published 2025):
Where no end group is shown, it is not given here.

Key:
p19 subunit = molecular target: T1, p19 subunit (Homo sapiens, UniProt Q9NPF7); settings: compared with Ustekinumab; cited from earlier work
T1 sequence (Q9NPF7 20-189): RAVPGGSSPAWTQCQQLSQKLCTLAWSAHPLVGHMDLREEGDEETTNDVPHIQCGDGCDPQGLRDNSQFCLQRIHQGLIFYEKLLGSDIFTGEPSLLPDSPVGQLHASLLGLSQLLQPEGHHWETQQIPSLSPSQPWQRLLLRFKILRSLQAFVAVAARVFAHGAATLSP
T1 sequence (P29460 23-328 partner): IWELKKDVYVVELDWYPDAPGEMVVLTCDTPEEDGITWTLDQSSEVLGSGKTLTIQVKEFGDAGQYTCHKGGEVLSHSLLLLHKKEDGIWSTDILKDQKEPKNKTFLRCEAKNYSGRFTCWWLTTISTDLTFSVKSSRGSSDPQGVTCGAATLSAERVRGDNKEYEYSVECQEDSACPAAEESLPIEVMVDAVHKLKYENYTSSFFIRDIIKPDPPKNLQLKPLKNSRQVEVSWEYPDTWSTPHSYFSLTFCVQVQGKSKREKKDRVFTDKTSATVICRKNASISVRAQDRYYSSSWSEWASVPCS

epitope peptide = assay: Antibody titer (GMT) of serum of mice administered AJP001 conjugated peptide, ELISA; format: in vivo, mouse; settings: BALB/c mice, 0.5 mg/body intradermal with equal amount of 2% Alhydrogel, 3 times at two-week intervals; serum 6 weeks after initial administration; titer to each epitope sequence
Procedure: AJP001 conjugated peptide having one of the B cell epitope sequences of SEQ ID NOs: 1-5 was dissolved in physiological saline and intradermally administered twice to BALB/c mice (female, 6-week-old, N=5-6) at 0.5 mg/body at 2-week intervals. Blood was collected before administration and 5 weeks after the initial administration, and the antibody titer against each AJP001 conjugated peptide and the binding ability to recombinant mouse IL-23 protein (rmIL-23) were measured by the ELISA method. Specifically, a 96-well plate immobilized with an epitope peptide dissolved at 10 μg/mL in carbonate buffer was blocked with 5% skim milk/PBS, and then serum serially diluted with 5% skim milk/PBS was added, and the mixture was left standing at 4° C. overnight. After washing the wells with PBS-T, HRP-labeled anti-mouse IgG antibody (GE Healthcare) diluted with 5% skim milk/PBS was added and the mixture was shaken at room temperature for 3 hr. After washing the wells with PBS-T, TMB solution (SIGMA) was added, the wells were allowed to stand for 30 min in the dark, the reaction was stopped by adding 0.5M H2SO4, and the absorbance at 450 nm was measured using a plate reader. The serum dilution rate that gave 1/2 (OD=1.75) of the maximum absorbance was defined as the antibody titer, and the geometric mean titer: GMT was calculated from the individual values. Binding to IL-23 protein was measured by the ELISA method in the same manner as the antibody titer, using rmIL-23 (Antibodies-online GmbH) as the solid-phased antigen and goat serum for blocking.
AJP001 conjugated peptide (SEQ ID NO: 2) was dissolved in physiological saline and intradermally administered to BALB/c mice (female, 6-week-old, N=6) at 1 mg/body 3 times at two-week intervals, and blood was collected every 2 weeks until 8 weeks. The antibody titer (GMT) of all the collected sera and the binding ability to rmIL-23 of the serum at the time point of 6 weeks were measured by the ELISA method (same method as in Example 1). The antibody titer and the binding of the induced antibody to rmIL-23 at each time point are shown in FIGS. 2 (a) and (b), respectively.
AJP001 conjugated peptide (SEQ ID NOs: 6-37) was dissolved in physiological saline, mixed with an equal amount of 2% Alhydrogel (invivogen), and this was intradermally administered to BALB/c mice (female, 6-week-old, N=5-6) at 0.5 mg/body 3 times at two-week intervals. Blood was collected before administration and at the time point of 6 weeks after initial administration, and the antibody titer (GMT) to each epitope sequence and binding ability to recombinant human IL-23 protein (rhIL-23) (Peprotech) were measured by the ELISA method (same method as in Example 1). The binding to rhIL-23 was evaluated by a binding ratio to normal serum by calculating the ratio of the absorbance of a well added with normal mouse serum to the absorbance of a well added with antiserum derived from a mouse administered with each AJP001 conjugated peptide (SEQ ID NOs: 6-37). In addition, the neutralization activity of mouse antiserum was evaluated using an action on IL-17 production in rhIL-23 stimulated mouse splenocyte as an index. The spleen of normal BALB/c mouse (female, 5-week-old, N=3) was triturated using a syringe barrel and a cell strainer and washed with and suspended in HBSS (−). Erythrocytes were then removed using ACK Buffer (Thermo fisher scientific), and splenocytes were isolated. The splenocytes were prepared to 2.5×10^6 cells/mL with 10% FBS/1% penicillin/streptomycin/4 ng/mL rmIL-2-containing RPMI1640 medium (culture medium), and seeded in a 96 well plate at 100 μl/well. The antiserum (final concentration 15-fold) of the mice administered with each AJP001 conjugated peptide and rhIL-23 (final concentration 10 ng/ml) were added to the culture medium, reacted at 37° C. for 2 hr, added at 100 μL/well to a 96-well plate seeded with splenocytes, and cultured for 3 days in a 37° C./5% CO2 incubator. […]

[1] = tested on: recombinant human IL-23 protein (rhIL-23); assay: Binding of mouse antiserum to rhIL-23, ELISA; settings: rhIL-23 ELISA; antiserum of BALB/c mice 6 weeks after initial administration, 0.5 mg/body with Alhydrogel
Procedure: (§1) AJP001 conjugated peptide (SEQ ID NOs: 6-37) was dissolved in physiological saline, mixed with an equal amount of 2% Alhydrogel (invivogen), and this was intradermally administered to BALB/c mice (female, 6-week-old, N=5-6) at 0.5 mg/body 3 times at two-week intervals. Blood was collected before administration and at the time point of 6 weeks after initial administration, and the antibody titer (GMT) to each epitope sequence and binding ability to recombinant human IL-23 protein (rhIL-23) (Peprotech) were measured by the ELISA method (same method as in Example 1). The binding to rhIL-23 was evaluated by a binding ratio to normal serum by calculating the ratio of the absorbance of a well added with normal mouse serum to the absorbance of a well added with antiserum derived from a mouse administered with each AJP001 conjugated peptide (SEQ ID NOs: 6-37). In addition, the neutralization activity of mouse antiserum was evaluated using an action on IL-17 production in rhIL-23 stimulated mouse splenocyte as an index. The spleen of normal BALB/c mouse (female, 5-week-old, N=3) was triturated using a syringe barrel and a cell strainer and washed with and suspended in HBSS (−). Erythrocytes were then removed using ACK Buffer (Thermo fisher scientific), and splenocytes were isolated. The splenocytes were prepared to 2.5×10^6 cells/mL with 10% FBS/1% penicillin/streptomycin/4 ng/mL rmIL-2-containing RPMI1640 medium (culture medium), and seeded in a 96 well plate at 100 μl/well. The antiserum (final concentration 15-fold) of the mice administered with each AJP001 conjugated peptide and rhIL-23 (final concentration 10 ng/ml) were added to the culture medium, reacted at 37° C. for 2 hr, added at 100 μL/well to a 96-well plate seeded with splenocytes, and cultured for 3 days in a 37° C./5% CO2 incubator. An untreated well and a control well to which normal mouse serum and rhIL-23 were added were provided. IL-17A/F in the culture supernatant was measured using Mouse IL-17A/F ELISA kit (R&D systems), the proportion (%) of IL-17 to normal serum was calculated from the IL-17 concentrations of untreated well (A), control well (B), and well (C) to which antiserum of the mice administered with each AJP001 conjugated peptide was added and according to the following formula, and the neutralization activity was evaluated.
AJP001 conjugated peptide (SEQ ID NO: 6) was dissolved in physiological saline and intradermally administered to BALB/c mice (female, 6-week-old, N=6) at 1 mg/body 3 times at two-week intervals, and blood was collected every 2 weeks until 8 weeks. The antibody titer (GMT) of all the collected sera and the binding ability to rhIL-23 of the serum at 6 weeks were measured by the ELISA method. In FIG. 5, “*” means P<0.05.

[2] = tested on: IL-17 production in rhIL-23 stimulated mouse splenocyte; assay: Neutralization activity of mouse antiserum: IL-17 production in rhIL-23 stimulated mouse splenocyte; format: cell-based; settings: antiserum final 15-fold, rhIL-23 10 ng/ml, 3 days culture; IL-17A/F ELISA
Procedure: as §1
Percentage of IL-17 to normal serum (%)=100×(C−A/B−A)

Substance: Risankizumab
- PASI90 (almost complete disappearance of psoriasis lesion) rate (p19 subunit): about twice as high as that of Ustekinumab

Substance: 36 (QPWQRSQPWQR; not fully specified (N-terminus)) [compound 36]
- antibody titer (GMT) (epitope peptide): 8202
- binding to IL-23 (binding ratio to normal serum) [1]: 1.10
- neutralization activity (percentage of IL-17 to normal serum (%)) [2]: 70.3%

Substance: 34 (PSQPWQRK; not fully specified (N-terminus); listed as Homo sapiens) [compound 34]
- antibody titer (GMT) (epitope peptide): 362
- binding to IL-23 (binding ratio to normal serum) [1]: 0.97
- neutralization activity (percentage of IL-17 to normal serum (%)) [2]: 32.5%

Substance: 6 (SPSQPWQR; not fully specified (N-terminus); listed as Homo sapiens) [compound 6]
- antibody titer (GMT) (epitope peptide): 12563
- binding to IL-23 (binding ratio to normal serum) [1]: 4.40
- neutralization activity (percentage of IL-17 to normal serum (%)) [2]: 15.8%

Substance: 21 (SSSQSWQR; not fully specified (N-terminus)) [compound 21]
- antibody titer (GMT) (epitope peptide): 19793
- binding to IL-23 (binding ratio to normal serum) [1]: 1.07
- neutralization activity (percentage of IL-17 to normal serum (%)) [2]: 6.9%

Substance: 11 (SPSQAWQR; not fully specified (N-terminus)) [compound 11]
- antibody titer (GMT) (epitope peptide): 10441
- binding to IL-23 (binding ratio to normal serum) [1]: 1.55
- neutralization activity (percentage of IL-17 to normal serum (%)) [2]: 8.1%

Substance: 37 (QPWQRGGGGSQPWQR; not fully specified (N-terminus)) [compound 37]
- antibody titer (GMT) (epitope peptide): 6459
- binding to IL-23 (binding ratio to normal serum) [1]: 1.05
- neutralization activity (percentage of IL-17 to normal serum (%)) [2]: 63.9%

Substance: 32 (SQPWQR; not fully specified (N-terminus); listed as Homo sapiens) [compound 32]
- antibody titer (GMT) (epitope peptide): 5567
- binding to IL-23 (binding ratio to normal serum) [1]: 1.03
- neutralization activity (percentage of IL-17 to normal serum (%)) [2]: 61.3%

Substance: 26 (STSQQWQR; not fully specified (N-terminus)) [compound 26]
- antibody titer (GMT) (epitope peptide): 64652
- binding to IL-23 (binding ratio to normal serum) [1]: 1.15
- neutralization activity (percentage of IL-17 to normal serum (%)) [2]: 0.0%

Substance: 27 (KPSQPWQR; not fully specified (N-terminus)) [compound 27]
- antibody titer (GMT) (epitope peptide): 12615
- binding to IL-23 (binding ratio to normal serum) [1]: 1.07
- neutralization activity (percentage of IL-17 to normal serum (%)) [2]: 72.3%
